Source: PubChem BioAssay (NCI)
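Test compounds were applied to cells in 96-well plates for 48 hours at 5 doses. TGI denotes the concentration required for complete inhibition of growth.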

Columns and labels:
Assay in all cases: NCI anticancer screen, dose series, 48 h
HOP-92 NSCLC = system: HOP-92 NSCLC
UO-31 renal = system: UO-31 renal
OVCAR-3 ovarian = system: OVCAR-3 ovarian
IGROV1 ovarian = system: IGROV1 ovarian
EKVX NSCLC = system: EKVX NSCLC
RPMI-8226 leukemia = system: RPMI-8226 leukemia
SK-MEL-5 melanoma = system: SK-MEL-5 melanoma
ACHN renal = system: ACHN renal
MDA-N = system: MDA-N
SN12C renal = system: SN12C renal
SNB-19 CNS = system: SNB-19 CNS
MDA-MB-435 = system: MDA-MB-435
HT29 colon = system: HT29 colon
SNB-75 CNS = system: SNB-75 CNS
M14 melanoma = system: M14 melanoma
NCI-H522 lung = system: NCI-H522 lung
HCC-2998 colon = system: HCC-2998 colon
T-47D breast = system: T-47D breast
MCF7 breast = system: MCF7 breast
OVCAR-5 ovarian = system: OVCAR-5 ovarian
MALME-3M melanoma = system: MALME-3M melanoma
MDA-MB-231 breast = system: MDA-MB-231 breast
NCI-H23 lung = system: NCI-H23 lung
CAKI-1 renal = system: CAKI-1 renal
SK-MEL-28 melanoma = system: SK-MEL-28 melanoma
A549 NSCLC = system: A549 NSCLC
MOLT-4 leukemia = system: MOLT-4 leukemia
SR leukemia = system: SR leukemia
RXF 393 renal = system: RXF 393 renal
NCI-H226 lung = system: NCI-H226 lung
SF-268 CNS = system: SF-268 CNS
LOX IMVI melanoma = system: LOX IMVI melanoma
HL-60(TB) leukemia = system: HL-60(TB) leukemia
K-562 leukemia = system: K-562 leukemia
NCI-H460 lung = system: NCI-H460 lung
NCI/ADR-RES ovarian = system: NCI/ADR-RES ovarian
UACC-257 melanoma = system: UACC-257 melanoma
TK-10 renal = system: TK-10 renal
SW-620 colon = system: SW-620 colon
SF-539 CNS = system: SF-539 CNS
DU-145 prostate = system: DU-145 prostate
HCT-15 colon = system: HCT-15 colon
HCT-116 colon = system: HCT-116 colon
CCRF-CEM leukemia = system: CCRF-CEM leukemia
HOP-62 NSCLC = system: HOP-62 NSCLC
SF-295 CNS = system: SF-295 CNS
KM12 colon = system: KM12 colon
HS 578T breast = system: HS 578T breast
OVCAR-4 ovarian = system: OVCAR-4 ovarian
786-0 renal = system: 786-0 renal
OVCAR-8 ovarian = system: OVCAR-8 ovarian
U251 CNS = system: U251 CNS
A498 renal = system: A498 renal
COLO 205 colon = system: COLO 205 colon
UACC-62 melanoma = system: UACC-62 melanoma
BT-549 breast = system: BT-549 breast
SK-OV-3 ovarian = system: SK-OV-3 ovarian
SK-MEL-2 melanoma = system: SK-MEL-2 melanoma
PC-3 prostate = system: PC-3 prostate

COC(=O)c1cc(C)ccc1C1CN=NC12Cc1cccc(C)c1C2=O (stereo not drawn)
TGI (HOP-92 NSCLC): > 100 µM | TGI (UO-31 renal): > 100 µM | TGI (OVCAR-3 ovarian): > 100 µM | TGI (IGROV1 ovarian): > 100 µM | TGI (EKVX NSCLC): 95.6 µM | TGI (RPMI-8226 leukemia): 54.9 µM | TGI (SK-MEL-5 melanoma): 31.9 µM | TGI (ACHN renal): > 100 µM | TGI (MDA-N): > 100 µM | TGI (SN12C renal): > 100 µM | TGI (SNB-19 CNS): > 100 µM | TGI (MDA-MB-435): 61.8 µM | TGI (HT29 colon): > 100 µM | TGI (SNB-75 CNS): > 100 µM | TGI (M14 melanoma): 38.9 µM | TGI (NCI-H522 lung): 89.6 µM | TGI (HCC-2998 colon): > 100 µM | TGI (T-47D breast): 35.6 µM | TGI (MCF7 breast): > 100 µM | TGI (OVCAR-5 ovarian): 96.4 µM | TGI (MALME-3M melanoma): 67.5 µM | TGI (MDA-MB-231 breast): 75.5 µM | TGI (NCI-H23 lung): > 100 µM | TGI (CAKI-1 renal): > 100 µM | TGI (SK-MEL-28 melanoma): > 100 µM | TGI (A549 NSCLC): > 100 µM | TGI (MOLT-4 leukemia): 54.7 µM | TGI (SR leukemia): > 100 µM | TGI (RXF 393 renal): > 100 µM | TGI (NCI-H226 lung): > 100 µM | TGI (SF-268 CNS): > 100 µM | TGI (LOX IMVI melanoma): 53 µM | TGI (HL-60(TB) leukemia): 32.8 µM | TGI (K-562 leukemia): > 100 µM | TGI (NCI-H460 lung): 72.3 µM | TGI (NCI/ADR-RES ovarian): 77.9 µM | TGI (UACC-257 melanoma): > 100 µM | TGI (TK-10 renal): > 100 µM | TGI (SW-620 colon): > 100 µM | TGI (SF-539 CNS): > 100 µM | TGI (DU-145 prostate): > 100 µM | TGI (HCT-15 colon): > 100 µM | TGI (HCT-116 colon): 70.5 µM | TGI (CCRF-CEM leukemia): 99 µM | TGI (HOP-62 NSCLC): > 100 µM | TGI (SF-295 CNS): > 100 µM | TGI (KM12 colon): 79.7 µM | TGI (HS 578T breast): > 100 µM | TGI (OVCAR-4 ovarian): > 100 µM | TGI (786-0 renal): > 100 µM | TGI (OVCAR-8 ovarian): > 100 µM | TGI (U251 CNS): > 100 µM | TGI (A498 renal): > 100 µM

CCOC(=O)N/N=C(\Cc1ccc([N+](=O)[O-])cc1)OCC
TGI (HOP-92 NSCLC): > 100 µM | TGI (UO-31 renal): > 100 µM | TGI (OVCAR-3 ovarian): > 100 µM | TGI (IGROV1 ovarian): > 100 µM | TGI (EKVX NSCLC): > 100 µM | TGI (RPMI-8226 leukemia): > 100 µM | TGI (SK-MEL-5 melanoma): > 100 µM | TGI (ACHN renal): > 100 µM | TGI (MDA-N): > 100 µM | TGI (SN12C renal): > 100 µM | TGI (SNB-19 CNS): > 100 µM | TGI (MDA-MB-435): > 100 µM | TGI (HT29 colon): > 100 µM | TGI (SNB-75 CNS): > 100 µM | TGI (M14 melanoma): > 100 µM | TGI (COLO 205 colon): > 100 µM | TGI (NCI-H522 lung): > 100 µM | TGI (HCC-2998 colon): > 100 µM | TGI (MCF7 breast): > 100 µM | TGI (OVCAR-5 ovarian): > 100 µM | TGI (MDA-MB-231 breast): > 100 µM | TGI (NCI-H23 lung): > 100 µM | TGI (UACC-62 melanoma): > 100 µM | TGI (A549 NSCLC): > 100 µM | TGI (MOLT-4 leukemia): > 100 µM | TGI (SR leukemia): > 100 µM | TGI (RXF 393 renal): > 100 µM | TGI (SF-268 CNS): > 100 µM | TGI (LOX IMVI melanoma): > 100 µM | TGI (K-562 leukemia): > 100 µM | TGI (BT-549 breast): > 100 µM | TGI (NCI/ADR-RES ovarian): > 100 µM | TGI (UACC-257 melanoma): > 100 µM | TGI (TK-10 renal): > 100 µM | TGI (SK-OV-3 ovarian): > 100 µM | TGI (SW-620 colon): > 100 µM | TGI (SF-539 CNS): > 100 µM | TGI (DU-145 prostate): > 100 µM | TGI (HCT-15 colon): > 100 µM | TGI (HCT-116 colon): > 100 µM | TGI (CCRF-CEM leukemia): > 100 µM | TGI (HOP-62 NSCLC): > 100 µM | TGI (SF-295 CNS): > 100 µM | TGI (KM12 colon): > 100 µM | TGI (OVCAR-4 ovarian): > 100 µM | TGI (786-0 renal): > 100 µM | TGI (OVCAR-8 ovarian): > 100 µM | TGI (U251 CNS): > 100 µM | TGI (SK-MEL-2 melanoma): > 100 µM | TGI (PC-3 prostate): > 100 µM
